Experiments:
[1] = system: A549 cells; test: cell cycle analysis by flow cytometry (PI); type: cell-based, human; details: 24 h, control 14.92%
Description: Microtubules play an important role in maintaining the normal process of cell mitosis.
Figure 3 Compound 14b induced cell cycle arrest at the G2/M phase. (A) The PI-stained DNA content detected by flow cytometry. A549 cells were treated with or without compound 14b at concentrations of 10, 20 and 50 nM for 24 h; then, the cells were harvested for cell cycle analysis by flow cytometry. (B) Quantitative analysis of the percentage of cells in each cell cycle phase by CytExpert analysis software. The experiments were performed at least three times, and the results of the representative experiments are shown.
S Ⅳ. Biological evaluation methods
The cells grown in logarithmical phase were seeded in 96-well plates with the density of 5×10^3/well.
(§1) After 24 h, the medium containing different concentrations of tested compounds were added for another 48 h. Then, CCK-8 reagents were added to cells and continued to culture for 2 h. The optical density was recorded with a microplate reader at 570 nm (Thermo Scientific, Varioskan LUX). All the experiments were repeated independently at least three times and the IC50 values were calculated […]
S2. In vitro tubulin polymerization inhibition assay
The in vitro tubulin polymerization inhibition assay was conducted according to the manufacturer ’s instruction (cytoskeleton, cat. no. BK011P). Briefly, 5 μL of the tested compounds at the indicated concentrations which were prepared with the buffer solution (containing 80.0 mM piperazine-N,N-bis(2-ethanesulfonic acid) sequiso-dium salt (pH 6.9), 10.2% glycerol, 2.0 mM MgCl2, 1 mM GTP, and 0.5 mM EGTA) was added to the plate. After the mixture was warmed to 37 °C for 1 min, the reaction was initiated by the addition of 55 μL of the tubulin solution which was kept on ice in prior.
The fluorescence intensity enhancement (emission wavelength is 410 nm, excitation wavelength is 340 nm) was recorded every 60 s for 60 min in a multifunction microplate reader (Molecular Devices, Flex Station 3). […]

[2] = system: HCT-8 (human ileocecum carcinoma cell line); test: CCK-8 cytotoxicity, HCT-8; type: cell-based; details: 48 h, read-out: IC50, Mean ± SE, HCT-8
Description: Besides the high cytotoxicity, drug resistance is the other limiting factor of chemotherapeutics. In this study, the cytotoxicities of compound 14b towards five kinds of drug-resistant cancer cell lines were also evaluated. Except three kinds of cell lines that are resistant to three drugs commonly used in clinical practice, two kinds of cell lines that are resistant to MTAs were also evaluated.
A549 (non-small-cell-lung cancer cell line), Caski (human epithelial cervical cancer cell line), HepG2 (human liver carcinoma cell line), MCF-7 (human breast carcinoma cell line), C42B (human prostate cancer line C42B), L-02 (human normal hepatocytes), RWPE-1 (human prostate epithelial cells) and MCF-10A (human normal mammary epithelial cells) were obtained from National Collection of Authenticated Cell Cultures (Shanghai, China). […]
as §1, with “Then, CCK-8 reagents were added to cells and continued to culture for 2 h.” left out

COc1ccc(C(=O)c2ccc3c(ccn3C)c2)c2c1C=CC(C)(C)O2 [compound 14b, (5-methoxy-2,2-dimethyl-2H-chromen-8-yl)(1-methyl-1H-indol-5-yl)methanone]
percentage of cells in G2/M ([1]; A549, 10 nM): 26.88%
percentage of cells in G2/M ([1]; A549, 20 nM): 35.02%
percentage of cells in G2/M ([1]; A549, 50 nM): 52.67%
IC50 [2]: 89 ± 15 nM
